In patent US20100266618A1, “COMPOSITIONS AND METHODS FOR AUGMENTING ACTIVITY OF ONCOLYTIC VIRUSES” (priority 2009, published 2010):

Key:
OVCAR-4 xenograft = test: Ovarian xenograft model, bioluminescent imaging; type: in vivo, CD-1 nude mice
Method: Ovarian xenograft model: Human ovarian carcinoma-derived OVCAR-4 cells, adapted for bioluminescent imaging, were injected into 6-8 week old athymic CD-1 nude mice (IP injection, 5×10^6 cells per mouse). Untreated animals develop measurable abdominal tumours (assessed by IVIS imaging) by 4-7 days, become icteric by 3-4 months and must be euthanized shortly thereafter due to systemic disease as characterized by enlarged cancerous liver and spleen, pale kidneys, and cancerous lymph nodes on the abdominal mesentery. For efficacy experiments, Compound 2 (250 mg/kg; or vehicle (10% Tween-80)) was administered twice daily (IP injections), beginning on day 14 and ending on day 19. Maraba-DM (1×10^5 pfu per cell) or PBS was injected IV (tail vein) on day 16, 17, 19, 23, 25, 27. Animals were monitored daily for weight loss, morbidity, hind leg paralysis and respiratory distress. Tumour images were captured twice weekly with a Xenogen 200 IVIS system (Caliper LS, USA), and total luminescent flux was analyzed on computerized software (Xenogen).

EMT6 breast cancer line = test: In vitro cytotoxicity assay with small molecule followed by Maraba virus infection; conditions: 50 uM for 48 h prior to Maraba virus infection
Method: In vitro cytotoxicity assays with small molecules: Cells were seeded onto 96 well plates to a confluence of ˜50%. The following day, siRNA transfections were performed, or small-molecule IRE1α inhibition was initiated. For the small-molecules, DMSO was used as a vehicle with a [drug]=20-50 μM. Drug treatment occurred for either 4 h (“acute” treatment), or was re-applied at 24 h and left for 48 h total (“chronic” treatment). Following knockdown or chemical inhibition, the cells were infected at log dilutions with the indicated rhabdoviruses. After 48-72 h of infection (depending on the cell line), Resazurin sodium salt was added to a final concentration of 20 μg/ml. After a 6 h incubation the absorbance was read at a wavelength of 573 nm.

EMT6 tumours = test: EMT6 syngeneic breast cancer model, bioluminescent imaging and survival; type: in vivo, Balb/c mice
Method: EMT6 syngeneic breast cancer models: Murine EMT6 breast cancer-derived cells (1×10^5 per mouse) were adapted for bioluminescent imaging and injected into the fat pad of the right lower breast in 6-8 week old Balb/c mice. Mice developed palpable tumours by 5-7 days, which grew rapidly. At 7 days post-tumour implants, mice were treated with Compound 2 (250 mg/kg, IP) or vehicle, twice daily, for six days. Maraba-DM (1×10^7 pfu per cell) or PBS was injected IV (tail vein) on day 10, 11, 13, 16, and 17. Animals were monitored daily for piloerection, weight loss, morbidity, hind leg paralysis and respiratory distress. Tumour images were captured twice weekly using a Xenogen 200 IVIS system (Caliper LS, USA), and total luminescent flux was analyzed on computerized software (Xenogen). Mice were euthanized when the total flux exceeded 1×10^7, which corresponded to a tumour burden of ˜500 mm^3 and occurred between 14-17 days in untreated animals.

[1] = Pharmacokinetic (PK) study, plasma LC-MS; type: in vivo; conditions: CD-1 nude mice
Method: (§1) Maximum tolerable dose (MTD) and pharmacokinetic (PK) studies in mice: For MTD studies, groups of three CD-1 nude mice (6-8 weeks old) were given a single intraperitoneal (IP) injection of Compound 2 (in log 2 increments, diluted in 10% Tween-80) ranging from […]-1000 mg/Kg. The animals were monitored twice daily for signs of distress, including weight loss, morbidity, and respiratory distress. For PK studies, groups of three CD-1 nude mice (6-8 weeks old) were given a single IP injection of Compound 2 (250 mg/Kg), and blood was taken from the saphenous vein at the indicated timepoints. The blood was centrifuged at 3,000 rpm for 10 min, and plasma collected and frozen (−80 deg C.). Plasma samples were analyzed for Compound 2 using LC-MS. To 10 μL plasma, 20 μL acetonitrile was added, vortexed briefly and centrifuged at 14,000 rpm for 10 min. The clear supernatant was transferred in to a vial for LC-MS analysis. Chromatographic separations were carried out on an Acquity UPLC BEH C18 (2.1×50 mm, […]) column using ACQUITY UPLC system. The mobile phase was 0.1% formic acid in water (solvent A) and 0.1% formic acid in acetonitrile (solvent B). A gradient starting at 95% solvent A going to 5% in 4.5 min, holding for 0.5 min, going back to 95% in 0.5 min and equilibrating the column for 1 min was employed. […]

[2] = Maximum tolerable dose (MTD) study; type: in vivo; conditions: single IP injection, CD-1 nude mice
Method: as §1

U373 and OVCAR8 cells = type: cell-based, human

| Compound | duration of reduced tumour burden (OVCAR-4 xenograft; combination with Maraba-DM) [days] | tumour burden (OVCAR-4 xenograft; combination with Maraba-DM, Compound 2 250 mg/kg IP twice daily) | tumour growth (OVCAR-4 xenograft; single agent) | sensitization to oncolytic virus killing (EMT6 breast cancer line) | tumour burden (EMT6 tumours; combination with Maraba virus, 250 mg/Kg IP twice daily for 6 days) | tumour growth after drug treatment was stopped (EMT6 tumours; combination, virus dosing continued) | tumour growth (EMT6 tumours; single agent) | efficacy (survival) with extended treatment (EMT6 tumours; treatment extended to more than 12 days in combination with virus) | bio-distribution [1] | half-life ([1]; mouse, plasma, intraperitoneal, 250 mg/Kg) [h] | tolerated single dose [2] | eIF2alpha phosphorylation (U373 and OVCAR8 cells) |
| --- | --- | --- | --- | --- | --- | --- | --- | --- | --- | --- | --- | --- |
| COc1cc(-c2cccc(C(N)=O)c2)cc(C=O)c1O [Compound 2, 3′-formyl-4′-hydroxy-5′-methoxy-[1,1′-biphenyl]-3-carboxamide] | > 30 | dramatically reduced tumour burden | rapid re-growth occurred after an early period of tumour regression | significantly sensitized to oncolytic virus killing | significantly reduced tumour burden | tumour re-growth occurred even in the presence of continued virus dosing | neither drug nor virus had an appreciable effect on tumour growth | continued to increase efficacy | efficient bio-distribution to the extravascular tissues | > 6 | up to 1000 mg/Kg | – |
| tunicamycin [reference compound] | – | – | – | – | – | – | – | – | – | – | – | inducing elF2alpha phosphorylation |
